Measurements from patent US20250034125A1, “COMPOUNDS AND USES THEREOF” (JANSSEN PHARMACEUTICA NV, priority 2019, published 2025).
Like-named read-outs stand apart in the source and are kept apart here.

What was measured:
SCD1 = biological target: T1, SCD1 (Homo sapiens, UniProt O00767); assay: Growth inhibition of yeast (ole1Δ) expressing human SCD1 as the sole desaturase; format: cell-based
T1 construct: host or cells: Saccharomyces cerevisiae ole1Δ strain (W303 pdr1Δ pdr3Δ background), plasmid pRS316, TDH3 promoter
T1 sequence (O00767 1-359): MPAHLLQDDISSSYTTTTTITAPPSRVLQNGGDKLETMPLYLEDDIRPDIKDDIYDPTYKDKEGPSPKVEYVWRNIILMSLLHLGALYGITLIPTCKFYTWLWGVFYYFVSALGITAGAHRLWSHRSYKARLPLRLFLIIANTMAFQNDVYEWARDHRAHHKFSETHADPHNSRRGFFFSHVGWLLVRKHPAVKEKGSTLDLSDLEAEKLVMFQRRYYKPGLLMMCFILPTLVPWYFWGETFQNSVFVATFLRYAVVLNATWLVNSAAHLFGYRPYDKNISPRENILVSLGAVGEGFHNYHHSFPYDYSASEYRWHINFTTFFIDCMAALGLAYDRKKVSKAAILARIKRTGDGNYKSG

SCD5 = biological target: T2, SCD5 (Homo sapiens, UniProt Q86SK9); assay: Growth inhibition of yeast (ole1Δ) expressing human SCD5 as the sole desaturase; format: cell-based
T2 construct: host or cells: Saccharomyces cerevisiae ole1Δ strain (W303 pdr1Δ pdr3Δ background), plasmid pRS316, TDH3 promoter
T2 sequence (Q86SK9 1-330): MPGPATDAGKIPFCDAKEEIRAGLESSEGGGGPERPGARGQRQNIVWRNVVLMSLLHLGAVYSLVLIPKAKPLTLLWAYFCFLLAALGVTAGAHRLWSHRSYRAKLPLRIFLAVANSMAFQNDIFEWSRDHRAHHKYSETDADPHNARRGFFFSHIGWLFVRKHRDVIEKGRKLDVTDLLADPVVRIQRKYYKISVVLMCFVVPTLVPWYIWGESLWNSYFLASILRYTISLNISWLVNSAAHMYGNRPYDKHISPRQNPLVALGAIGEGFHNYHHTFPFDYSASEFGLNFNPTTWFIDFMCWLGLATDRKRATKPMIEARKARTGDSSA

[1] = yeast strain with SCD1 plasmid, OD600 growth read at 40 h, read-out: SCD1 IC50
[2] = yeast strain with SCD5 plasmid, OD600 growth read at 40 h, read-out: SCD5 IC50

| SMILES | IC50 (SCD1; [1]) [nM] | IC50 (SCD5; [2]) [nM] | other results |
| --- | --- | --- | --- |
| Cn1nc(-c2nc(N3CCC(Cc4ccc(F)c(F)c4)CC3)no2)ccc1=O [Compound 116, 6-(3-(4-(3,4-difluorobenzyl)piperidin-1-yl)-1,2,4-oxadiazol-5-yl)-2-methylpyridazin-3(2H)-one] | 860 | 10 | – |
| Cn1nc(NC(=O)N2CCC(Cc3ccc(Cl)cc3)CC2)ccc1=O [Compound 43] | 8580 | 2240 | – |
| Cn1nc(NC(=O)N2CCC(O)(Cc3cccc(F)c3)CC2)ccc1=O [Compound 47, 4-(3-fluorobenzyl)-4-hydroxy —N-(1-methyl-6-oxo-1,6-dihydropyridazin-3-yl)piperidine-1-carboxamide] | > 45000 | > 45000 | – |
| Cn1nc(OC(=O)N2CCC(Oc3ccc(F)c(F)c3)CC2)ccc1=O [Compound 107] | > 45000 | 7930 | – |
| Cn1nc(CC(=O)N2CCC(Cc3cccc(Cl)c3)CC2)ccc1=O [Compound 37, 6-(2-(4-(3-chlorobenzyl)piperidin-1-yl)-2-oxoethyl)-2-methylpyridazin-3(2H)-one] | 12700 | 4360 | – |
| Cn1nc(-c2nnc(N3CCC(Cc4cc(F)cc(F)c4)CC3)o2)ccc1=O [Compound 118, 6-(5-(4-(3,5-difluorobenzyl)piperidin-1-yl)-1,3,4-oxadiazol-2-yl)-2-methylpyridazin-3(2H)-one] | 26300 | 70 | – |
| Cn1nc(-c2noc(N3CCC(Cc4cc(F)cc(F)c4)CC3)n2)ccc1=O [Compound 122, 6-(5-(4-(3,5-difluorobenzyl)piperidin-1-yl)-1,2,4-oxadiazol-3-yl)-2-methylpyridazin-3(2H)-one] | 13600 | 1730 | – |
| Cn1nc(NC(=O)N2CCC(Cc3cccc(F)c3)CC2)ccc1=O [Compound 41, 4-(3-fluorobenzyl)-N-(1-methyl-6-oxo-1,6-dihydropyridazin-3-yl)piperidine-1-carboxamide] | 2710 | 140 | – |
| O=C(Cc1ccc(=O)[nH]n1)N1CCC(Cc2cc(F)cc(F)c2)CC1 [Compound 35] | > 45000 | 20400 | – |
| Cn1nc(NC(=O)N2CCC(COc3ccccc3F)CC2)ccc1=O [Compound 99, 4-((2-fluorophenoxy)methyl)-N-(1-methyl-6-oxo-1,6-dihydropyridazin-3-yl)piperidine-1-carboxamide] | 32500 | 6870 | – |
| Cn1nc(NC(=O)N2CC[C@H](Oc3cc(F)cc(F)c3)C2)ccc1=O [Compound 30, (3S)-3-(3,5-difluorophenoxy)-N-(1-methyl-6-oxo-1,6-dihydropyridazin-3-yl)pyrrolidine-1-carboxamide] | 330 | 2900 | – |
| Cn1nc(NC(=O)N2CCC(Cc3cccc(Cl)c3)C2)ccc1=O (stereo not shown) [Compound 25, 3-(3-chlorobenzyl)-N-(1-methyl-6-oxo-1,6-dihydropyridazin-3-yl)pyrrolidine-1-carboxamide] | 2750 | 5290 | – |
| Cn1nc(NC(=O)N2CCC(Cc3cc(F)cc(F)c3Cl)CC2)ccc1=O [Compound 64, 4-(2-chloro-3,5-difluorobenzyl)-N-(1-methyl-6-oxo-1,6-dihydropyridazin-3-yl)piperidine-1-carboxamide] | 50 | 10 | – |
| Cc1cc(NC(=O)N2CCC(Cc3cc(F)cc(F)c3)CC2)nn(C)c1=O [Compound 128] | 50 | 20 | – |
| Cn1nc(NC(=O)N2CCN(Cc3cccc(Cl)c3)CC2)ccc1=O [Compound 130, 4-(3-chlorobenzyl)-N-(1-methyl-6-oxo-1,6-dihydropyridazin-3-yl)piperazine-1-carboxamide] | > 45000 | 15800 | – |
| Cn1nc(NC(=O)N2CCC(Oc3ccc(F)cc3Cl)CC2)ccc1=O [Compound 83, 4-(2-chloro-4-fluorophenoxy)-N-(1-methyl-6-oxo-1,6-dihydropyridazin-3-yl)piperidine-1-carboxamide] | 4360 | 6210 | – |
| Cn1nc(NC(=O)N2CCC(Oc3ccccc3C(F)(F)F)CC2)ccc1=O [Compound 75, N-(1-methyl-6-oxo-1,6-dihydropyridazin-3-yl)-4-(2-(trifluoromethyl)phenoxy) piperidine-1-carboxamide] | 220 | 70 | – |
| Cn1cc(-c2nc(N3CCC(Oc4cc(F)cc(F)c4)CC3)no2)ccc1=O [Compound 15, 5-(3-(4-(3,5-difluorophenoxy)piperidin-1-yl)-1,2,4-oxadiazol-5-yl)-1-methylpyridin-2(1H)-one] | 12400 | 860 | – |
| Cn1cc(NC(=O)N2CCC(Cc3cc(F)cc(Cl)c3)CC2)ccc1=O [Compound 8, 4-(3-chloro-5-fluorobenzyl)-N-(1-methyl-6-oxo-1,6-dihydropyridin-3-yl)piperidine-1-carboxamide] | 2320 | 830 | – |
| Cn1cc(NC(=O)N2CCC(Nc3cc(F)cc(F)c3)CC2)ccc1=O [Compound 11, 4-(3,5-difluorophenylamino)-N-(1-methyl-6-oxo-1,6-dihydropyridin-3-yl)piperidine-1-carboxamide] | – | – | IC50 (SCD1): > 45000 nM; IC50 (SCD5): > 45000 nM |
| Cn1nc(NC(=O)N2CC[C@@H](Oc3ccc(F)c(F)c3)C2)ccc1=O [Compound 27, (3R)-3-(3,4-difluorophenoxy)-N-(1-methyl-6-oxo-1,6-dihydropyridazin-3-yl)pyrrolidine-1-carboxamide] | 17000 | > 45000 | – |
| Cn1nc(-c2nc(N3CCC(Cc4cc(Cl)cc(C#N)c4)CC3)no2)ccc1=O [Compound 117, 3-chloro-5-((1-(5-(1-methyl-6-oxo-1,6-dihydropyridazin-3-yl)-1,2,4-oxadiazol-3-yl)piperidin-4-yl)methyl)benzonitrile] | 2000 | 30 | – |
| Cn1nc(NC(=O)N2CCC(Oc3cccc(Cl)c3)CC2)ccc1=O [Compound 68, 4-(3-chlorophenoxy)-N-(1-methyl-6-oxo-1,6-dihydropyridazin-3-yl)piperidine-1-carboxamide] | 260 | 60 | – |
| Cn1nc(NC(=O)N2CCC(Cc3ccc(F)cc3)CC2)ccc1=O [Compound 44, 4-(4-fluorobenzyl)-N-(1-methyl-6-oxo-1,6-dihydropyridazin-3-yl)piperidine-1-carboxamide] | – | – | IC50 (SCD1; read-out: SCD1 IC50): 2210 nM; IC50 (SCD5; read-out: SCD5 IC50): 1170 nM |
| Cn1nc(NC(=O)N2CCC(Cc3cc(F)cc(C#N)c3)CC2)ccc1=O [Compound 50] | 17100 | 2460 | – |
| Cn1nc(NC(=O)N2CC=C(c3ccc(Cl)cc3)CCC2)ccc1=O [Compound 134, 5-(4-chlorophenyl)-N-(1-methyl-6-oxo-1,6-dihydropyridazin-3-yl)-2,3,4,7-tetrahydro-1H-azepine-1-carboxamide] | > 45000 | > 45000 | – |
| CN(c1cc(F)cc(F)c1)C1CCN(C(=O)Nc2ccc(=O)n(C)n2)CC1 [Compound 95] | > 45000 | 12000 | – |
| Cn1nc(NC(=O)N2CCC(Oc3cc(F)cc(F)c3)CC2)ccc1=O [Compound 79, 4-(3,5-difluorophenoxy)-N-(1-methyl-6-oxo-1,6-dihydropyridazin-3-yl)piperidine-1-carboxamide] | 480 | 200 | – |
| Cn1cc(NC(=O)N2CCC(Cc3cc(F)cc(F)c3)C2)ccc1=O (stereo not shown) [Compound 3, 3-(3,5-difluorobenzyl)-N-(1-methyl-6-oxo-1,6-dihydropyridin-3-yl)pyrrolidine-1-carboxamide] | 11300 | 20700 | – |
